From paper PMC9157728, “Albumin Binder–Conjugated Fibroblast Activation Protein Inhibitor Radiopharmaceuticals for Cancer Therapy” (Journal of Nuclear Medicine, 2022)
Like-named read-outs stand apart in the source and are kept apart here.

Key:
[1] = test system: pancreatic cancer PDX tumors; experiment: Static PET imaging in pancreatic cancer PDX-bearing mice; assay type: in vivo; conditions: for tumor area under the curve relative to FAPI-04: ^86Y PET tumor SUVmean curve; for peak tumor SUVmean / time of peak tumor SUVmean after injection: ^86Y PET
Method: (§1) All animal care and experimental procedures were performed by following the animal protocols (CCME-LiuZB-2) approved by the ethics committee of Peking University. The mice were from the Beijing Vital River Laboratory Animal Technology Co., Ltd. For cell-line–derived xenograft models, 5 × 10^6 HT-1080-FAP or HT-1080 cells were subcutaneously inoculated into the right shoulder of 6-wk-old female nu/nu-mice. To establish the patient-derived xenograft (PDX) model, tumor specimens were obtained from patients who underwent presurgical ^68Ga-FAPI-04 PET/CT imaging to confirm that the tumor was FAP-positive. After surgical resection, the tumor specimens were immediately placed in ready-to-use fresh tissue preservation solution (TM2701-100) and transported under refrigerated conditions within 2 h. The research protocol was approved by the Institutional Ethics Committee of Peking Union Medical College Hospital (JS-2628). Six-week-old female nonobese diabetic/severe combined immunodeficiency (NOD/SCID) mice were used to establish the PDX models. After being removed from the preservation solution, the tumor specimens were immediately immersed in sterile PBS solution and minced with scissors, and the fragments were then implanted subcutaneously into the left and right shoulders of the mice, which were anesthetized with isoflurane in advance. Engraftment efficiency was determined by ^68Ga-FAPI-04 PET/CT imaging (Supplemental Fig. 21A).
All PET scans were performed on a Mediso nanoScan PET 122S small-animal PET/CT imaging system. For the 60-min dynamic PET scan, 29.6–37.0 MBq of ^68Ga-TEFAPI-06 or ^68Ga-TEFAPI-07 were given to healthy NOD/SCID mice through tail-vein injection. The static PET imaging was performed on mice bearing pancreatic PDX tumors, HT-1080-FAP tumors, and HT-1080 tumors at the indicated time points after intravenous injection of 7.4–11.1 MBq of ^86Y-FAPI-04,^86Y-TEFAPI-06, or ^86Y-TEFAPI-07.

FAP [2] = molecular target: T1, FAP (Homo sapiens, UniProt Q12884); experiment: Blocking study in vivo with cold ligand; design: from tissue; host or cells: tumour in tumour-bearing mice; species or system mice; conditions: 12 h and 24 h after treatment with cold ligand
T1 sequence (Q12884 1-760): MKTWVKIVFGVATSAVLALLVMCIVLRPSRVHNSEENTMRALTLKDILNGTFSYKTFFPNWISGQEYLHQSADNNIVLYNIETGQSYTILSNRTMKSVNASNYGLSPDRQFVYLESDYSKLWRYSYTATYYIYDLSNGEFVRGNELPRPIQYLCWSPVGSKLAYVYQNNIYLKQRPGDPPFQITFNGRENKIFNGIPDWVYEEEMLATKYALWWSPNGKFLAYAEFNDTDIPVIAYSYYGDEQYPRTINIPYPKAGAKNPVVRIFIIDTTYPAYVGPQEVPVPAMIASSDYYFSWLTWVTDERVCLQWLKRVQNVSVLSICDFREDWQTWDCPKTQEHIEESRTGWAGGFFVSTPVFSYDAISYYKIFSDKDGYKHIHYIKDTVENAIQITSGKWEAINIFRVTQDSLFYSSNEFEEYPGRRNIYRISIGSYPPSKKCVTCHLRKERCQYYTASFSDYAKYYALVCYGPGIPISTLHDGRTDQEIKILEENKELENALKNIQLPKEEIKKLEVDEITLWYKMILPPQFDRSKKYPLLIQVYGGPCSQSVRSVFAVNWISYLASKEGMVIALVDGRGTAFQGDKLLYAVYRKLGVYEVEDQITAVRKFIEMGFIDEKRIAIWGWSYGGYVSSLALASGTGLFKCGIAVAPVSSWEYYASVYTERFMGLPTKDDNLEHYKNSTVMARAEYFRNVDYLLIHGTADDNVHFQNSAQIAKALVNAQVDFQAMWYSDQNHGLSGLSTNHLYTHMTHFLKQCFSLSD

FAP [3] = molecular target: T1, FAP; experiment: Competition assay against ^68Ga-FAPI-04 in HT-1080-FAP cells; assay type: binding; design: host or cells: HT-1080 human fibrosarcoma cells (HT-1080-FAP)
Method: (§2) The human fibrosarcoma cell line (HT-1080), and the HT-1080 cell line transfected with human FAP gene (HT-1080-FAP, from WuXi AppTec), were cultivated in Eagle minimum essential medium containing 10% fetal bovine serum, 1% antibiotic–antimycotic, and a 4 μg/mL concentration of blasticidin S at 37°C under conditions of 5% carbon dioxide. For competition assays, HT-1080-FAP cells were seeded in 6-well plates and cultivated until they reached about 1.2 × 10^6 cells per well. The cells were incubated simultaneously with unlabeled FAPI-04, TEFAPI-06, or TEFAPI-07 (10^−5–10^−9 M) with ^68Ga-FAPI-04 in 1 mL of fresh medium without fetal bovine serum for 1 h. The medium was removed, and the cells were washed twice with phosphate-buffered saline (PBS). Subsequently, the cells were lysed with 0.5 mL of 1 M NaOH and washed with 0.5 mL of PBS twice, and the NaOH (0.5 mL) and PBS (0.5 mL × 2) were collected to determine the uptake counts. For saturation binding assays, HT-1080-FAP and HT-1080 cells were seeded in 24-well plates and cultivated until they reached about 2 × 10^5 cells per well. ^68Ga-FAPI-04, ^68Ga-TEFAPI-06, or ^68Ga-TEFAPI-07 was diluted to a concentration 0.01–200 nM in fresh medium without fetal bovine serum. The cells were incubated in the above solution for 1 h and then washed twice with PBS. The lysed cells and the PBS for washing were collected to determine the counts.

FAP [4] = molecular target: T1, FAP; experiment: Saturation binding assay of ^68Ga-labeled tracers in HT-1080-FAP and HT-1080 cells; design: host or cells: HT-1080 human fibrosarcoma cells (HT-1080-FAP)
Method: as §2

HT-1080-FAP cells = experiment: Cellular uptake assay in HT-1080-FAP cells; assay type: cell-based, human
HT-1080 cells = experiment: Cellular uptake assay in HT-1080 cells; assay type: cell-based, human; conditions: HT-1080 cells (FAP-negative)
Method: as §2

[5] = Dynamic PET imaging in healthy NOD/SCID mice (heart/blood signal); assay type: in vivo; conditions: for time of peak signal in heart after injection: dynamic PET
[6] = test system: HT-1080-FAP and HT-1080 tumors; experiment: PET imaging of HT-1080-FAP and HT-1080 tumor-bearing mice; assay type: in vivo; conditions: ^86Y PET, tumor-bearing nu/nu mice
Method: as §1, with “After being removed from the preservation solution, the tumor specimens were immediately immersed in sterile PBS solution and minced with scissors, and the fragments were then implanted subcutaneously into the left and right shoulders of the mice, which were anesthetized with isoflurane in advance.” left out, “21A). […]” for “21A).”

[7] = 0.05% human serum albumin, read-out: half-maximal inhibitory concentration in the presence of albumin
[8] = HT-1080-FAP cells, unlabeled ligand vs ^68Ga-FAPI-04, 1 h, medium without FBS, read-out: half-maximal inhibitory concentration (IC50)
[9] = ^68Ga-labeled tracer, 0.01-200 nM, 1 h, medium without FBS, read-out: dissociation constant (Kd)
[10] = binding assays in 0.05% human serum albumin, sentence prints 'in the absence of albumin', read-out: dissociation constant, binding assays in 0.05% human serum albumin

Structure (SMILES)	tumor area under the curve relative to FAPI-04 [1] [fold]	tumor uptake after treatment with cold ligand (blocking) (FAP [2])	IC50 (FAP [3]; [7]) [nM]	IC50 (FAP [3]; [8]) [nM]	Kd (FAP [4]; [9]) [nM]	Kd (FAP [4]; [10]) [nM]	decrease of heart signal from 10 to 60 min after injection [5]	decrease of heart signal from 10 to 240 min after injection [5]	decrease of heart signal from 60 to 240 min after injection [5]	time of peak signal in heart after injection [5]	tumor SUVmean at 36 h after injection [1]	peak tumor SUVmean [1]	time of peak tumor SUVmean after injection [1] [h]	cellular uptake in HT-1080-FAP cells (HT-1080-FAP cells)	cellular uptake in HT-1080 cells (HT-1080 cells)	uptake in HT-1080-FAP tumors relative to HT-1080 tumors [6]
N#C[C@@H]1CC(F)(F)CN1C(=O)CNC(=O)c1ccnc2ccc(OCCCN3CCN(C(=O)[C@H](CCCCNC(=O)CN4CCN(CC(=O)O)CCN(CC(=O)O)CCN(CC(=O)O)CC4)NC(=O)CCCC(=O)NC(CCCCNC(=O)CCCc4ccc(I)cc4)C(=O)O)CC3)cc12 (stereo partly shown) [TEFAPI-06]	37.9	tumor uptake decreased	11.4 ± 1.15	12.2 ± 0.65	10.2 ± 2.56	4.37 ± 0.81	–	–	–	–	–	–	–	–	–	–
Cc1cc(-c2ccc(NC(=O)CCCC(=O)N[C@@H](CCCCNC(=O)CN3CCN(CC(=O)O)CCN(CC(=O)O)CCN(CC(=O)O)CC3)C(=O)N3CCN(CCCOc4ccc5nccc(C(=O)NCC(=O)N6CC(F)(F)C[C@H]6C#N)c5c4)CC3)c(C)c2)ccc1N=Nc1ccc2c(S(=O)(=O)O)cc(S(=O)(=O)O)c(N)c2c1O [TEFAPI-07]	35.5	tumor uptake decreased	27.7 ± 5	17 ± 1.43	7.81 ± 2.28	19.1 ± 5.54	–	–	–	–	–	–	–	–	–	–
N#C[C@@H]1CC(F)(F)CN1C(=O)CNC(=O)c1ccnc2ccc(OCCCN3CCN(C(=O)[C@H](CCCCNC(=O)CN4CCN(CC(=O)[O-])CCN(CC(=O)[O-])CCN(CC(=O)[O-])CC4)NC(=O)CCCC(=O)NC(CCCCNC(=O)CCCc4ccc(I)cc4)C(=O)O)CC3)cc12.[68Ga+3] (stereo partly shown) [^68Ga-TEFAPI-06]	–	–	–	–	10.2 ± 2.56	–	35.70% ± 4.74%	56.18% ± 2.50%	31.80% ± 1.15%	about 2 min	–	–	–	significant uptake	almost negligible uptake	–

Further lines, with some results ahead:

tumor area under the curve relative to FAPI-04 [1] [fold]	tumor uptake after treatment with cold ligand (blocking) (FAP [2])	IC50 (FAP [3]; [7]) [nM]	IC50 (FAP [3]; [8]) [nM]	Kd (FAP [4]; [9]) [nM]	Kd (FAP [4]; [10]) [nM]	decrease of heart signal from 10 to 60 min after injection [5]	decrease of heart signal from 10 to 240 min after injection [5]	decrease of heart signal from 60 to 240 min after injection [5]	time of peak signal in heart after injection [5]	tumor SUVmean at 36 h after injection [1]	peak tumor SUVmean [1]	time of peak tumor SUVmean after injection [1] [h]	Structure (SMILES)	cellular uptake in HT-1080-FAP cells (HT-1080-FAP cells)	cellular uptake in HT-1080 cells (HT-1080 cells)	uptake in HT-1080-FAP tumors relative to HT-1080 tumors [6]
–	–	–	–	7.81 ± 2.28	–	23.15% ± 2.16%	54.28% ± 4.98%	40.56% ± 5.25%	about 2 min	–	–	–	Cc1cc(-c2ccc(NC(=O)CCCC(=O)N[C@@H](CCCCNC(=O)CN3CCN(CC(=O)[O-])CCN(CC(=O)[O-])CCN(CC(=O)[O-])CC3)C(=O)N3CCN(CCCOc4ccc5nccc(C(=O)NCC(=O)N6CC(F)(F)C[C@H]6C#N)c5c4)CC3)c(C)c2)ccc1N=Nc1ccc2c(S(=O)(=O)O)cc(S(=O)(=O)O)c(N)c2c1O.[68Ga+3] [^68Ga-TEFAPI-07]	significant uptake	almost negligible uptake	–
–	–	–	–	–	–	–	–	–	–	0.602	0.73	18	N#C[C@@H]1CC(F)(F)CN1C(=O)CNC(=O)c1ccnc2ccc(OCCCN3CCN(C(=O)[C@H](CCCCNC(=O)CN4CCN(CC(=O)[O-])CCN(CC(=O)[O-])CCN(CC(=O)[O-])CC4)NC(=O)CCCC(=O)NC(CCCCNC(=O)CCCc4ccc(I)cc4)C(=O)O)CC3)cc12.[86Y+3] (stereo partly shown) [^86Y-TEFAPI-06]	–	–	2- to 6 fold
–	–	–	–	–	–	–	–	–	–	0.606	0.81	8	Cc1cc(-c2ccc(NC(=O)CCCC(=O)N[C@@H](CCCCNC(=O)CN3CCN(CC(=O)[O-])CCN(CC(=O)[O-])CCN(CC(=O)[O-])CC3)C(=O)N3CCN(CCCOc4ccc5nccc(C(=O)NCC(=O)N6CC(F)(F)C[C@H]6C#N)c5c4)CC3)c(C)c2)ccc1N=Nc1ccc2c(S(=O)(=O)O)cc(S(=O)(=O)O)c(N)c2c1O.[86Y+3] [^86Y-TEFAPI-07]	–	–	2- to 6 fold
